Test results taken from article PMC11186346, “Conformational flexibility driving charge-selective substrate translocation across a bacterial transporter” (Chemical Science, 2024).
Read-outs that look alike come from different tables or passages of the source.

Legend:
native CymA = biological target: T1, native CymA (Klebsiella oxytoca, UniProt Q48391); assay: single-channel electrical recording, planar lipid bilayer; assay type: biochemical; settings: +50 mV
T1 construct: full-length mature pore, residues 1-324, purified as described in earlier work, reconstituted in DPhPC planar lipid bilayers; monomeric beta-barrel
T1 sequence (Q48391 23-346): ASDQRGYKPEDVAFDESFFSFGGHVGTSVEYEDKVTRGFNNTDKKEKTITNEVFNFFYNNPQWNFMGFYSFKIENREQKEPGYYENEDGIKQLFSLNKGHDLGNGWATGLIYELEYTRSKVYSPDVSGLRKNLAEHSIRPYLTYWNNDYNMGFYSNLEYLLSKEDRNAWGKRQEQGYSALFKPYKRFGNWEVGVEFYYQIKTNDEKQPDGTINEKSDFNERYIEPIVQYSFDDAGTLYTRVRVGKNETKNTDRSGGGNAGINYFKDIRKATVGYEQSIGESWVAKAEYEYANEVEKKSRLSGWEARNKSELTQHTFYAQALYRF

truncated CymA (ΔN15) = truncated CymA (ΔN15) (Klebsiella oxytoca, UniProt Q48391); settings: +50 mV
[1] = pH 8.0, 1 M KCl, 10 mM HEPES, trans side, mean dwell time of blockage (koff = 1/τoff)
[2] = pH 6.0, mean dwell time of blockage

With `NC[C@H]1O[C@@H]2O[C@H]3[C@H](O)[C@@H](O)[C@@H](O[C@H]4[C@H](O)[C@@H](O)[C@@H](O[C@H]5[C@H](O)[C@@H](O)[C@@H](O[C@H]6[C@H](O)[C@@H](O)[C@@H](O[C@H]7[C@H](O)[C@@H](O)[C@@H](O[C@H]1[C@H](O)[C@H]2O)O[C@@H]7CN)O[C@@H]6CN)O[C@@H]5CN)O[C@@H]4CN)O[C@@H]3CN` [am6αCD] the τoff (native CymA; [1]) was 0.55 ± 0.06 ms and the τoff (truncated CymA (ΔN15); [1]) was 0.32 ± 0.04 ms.

With `OC[C@H]1O[C@@H]2O[C@H]3[C@H](O)[C@@H](O)[C@@H](O[C@H]4[C@H](O)[C@@H](O)[C@@H](O[C@H]5[C@H](O)[C@@H](O)[C@@H](O[C@H]6[C@H](O)[C@@H](O)[C@@H](O[C@H]7[C@H](O)[C@@H](O)[C@@H](O[C@H]1[C@H](O)[C@H]2O)O[C@@H]7CO)O[C@@H]6CO)O[C@@H]5CO)O[C@@H]4CO)O[C@@H]3CO` [αCD] the τoff (native CymA; [2]) was 0.620 ± 0.05 ms and the τoff (truncated CymA (ΔN15); [2]) was 0.4500 ± 0.04 ms.
